The record followed here is patent US20240150423A1, “GLP-1 ANALOGUE-MODIFIED DIMERS WITH DIFFERENT CONFIGURATIONS, PREPARATION METHOD THEREOF, AND APPLICATION THEREOF IN TREATMENT OF TYPE II DIABETES” (Nanjing Finepeptide Biopharmaceutical Co.,Ltd, priority 2019, published 2024).

This assay deals with Normal Kunming (KM) mice. Briefly: multiple OGTT (mOGTT): hypoglycemic duration after a single administration. In kind it is in vivo. To be noted: monomeric peptides, single injection at the same dose (1.126 nmol), subcutaneous. The method in brief: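 Tail blood glucose was followed by meter in normal KM mice after one dosing and glucose gavage, at 0, 10, 20, 40, 60 and 120 min. Measurement stopped when the treated mean rose above the NaCl group twice; the period before that is the effective duration.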

Non-standard residues stand in square brackets, D forms with d. No end group written: not given here. βAib = beta-Aib residue

With “His-aAib-Glu-Gly-Thr-Phe-Thr-Ser-Asp-Val-Ser-Cys-Tyr-Leu-Glu-Gly-Gln-Ala-Ala-Lys[N-ϵ-(N-α-Palmitoyl-L-γ-glutamyl)]-Glu-Phe-Ile-Ala-Trp-Leu-Val-Arg-Gly-Arg-Gly-NH2 (HXEGTFTSDVSCYLEGQAAXEFIAWLVRGRG; Aib; palmitoyl-gamma-Glu on Lys; C-terminal amide; Sequence is synthesized; (2)..(2) Xaa is aAib; (20)..(20) Xaa is 26Lys[N-e-(N-a-palmitoyl-L-g-glutamyl)]; (31)..(31) N-terminal) [G6 series 48]”, the “Hypoglycemic” value was 7 days. Under “His-aAib-Glu-Gly-Thr-Phe-Thr-Ser-Asp-Val-Ser-Cys-Tyr-Leu-Glu-Gly-Gln-Ala-Ala-Lys[N-ϵ-(N-α-Palmitoyl-L-γ-glutamyl)]-Glu-Phe-Ile-Ala-Trp-Leu-Val-Arg-Gly-Arg-Gly-OH (HXEGTFTSDVSCYLEGQAAXEFIAWLVRGRG; Aib; palmitoyl-gamma-Glu on Lys; C-terminal acid; Sequence is synthesized; (2)..(2) Xaa is aAib; (20)..(20) Xaa 26Lys[N-e-(N-a-palmitoyl-L-g-glutamyl)]; (31)..(31) C-terminal) [G6 series 45]” stands 4 days; under “His-aAib-Glu-Gly-Thr-Phe-Thr-Ser-Asp-Val-Ser-Cys-Tyr-Leu-Glu-Gly-Gln-Ala-Ala-Lys[N-ϵ-(N-α-Palmitoyl-L-γ-glutamyl)]-Glu-Phe-Ile-Ala-Trp-Leu-Val-Lys[N-ϵ-(N-α-Palmitoyl-L-γ-glutamyl)]-Gly-Arg-Gly-NH2 (HXEGTFTSDVSCYLEGQAAXEFIAWLVXGRG; Aib; two palmitoyl-gamma-Glu on Lys; C-terminal amide; Sequence is synthesized; (2)..(2) Xaa is aAib; (20)..(20) Xaa is 26Lys[N-e-(N-a-palmitoyl-L-g-glutamyl)]; (28)..(28) Xaa is 26Lys[N-e-(N-a-palmitoyl-L-g-glutamyl)]; (31)..(31) N-terminal) [G5 series 42]”, 3 days; under “His-aAib-Glu-Gly-Thr-Phe-Thr-Ser-Asp-Val-Ser-Cys-Tyr-Leu-Glu-Gly-Gln-Ala-Ala-Lys[N-ϵ-(N-α-oleoyl)]-Glu-Phe-Ile-Ala-Trp-Leu-Val-Arg-Gly-Arg-Gly-NH2 (HXEGTFTSDVSCYLEGQAAXEFIAWLVRGRG; not fully specified; Aib; oleoyl on Lys side chain; C-terminal amide; Sequence is synthesized; (2)..(2) Xaa is aAib; (20)..(20) Xaa is 26Lys[N-e-(N-a-oleoyl-L-g-glutamyl)]; (31)..(31) N-terminal) [G4 series 36]”, 8 days. The value for “His-aAib-Glu-Gly-Thr-Phe-Thr-Ser-Asp-Val-Ser-Cys-Tyr-Leu-Glu-Gly-Gln-Ala-Ala-Lys[N-ϵ-(N-α-oleoyl-L-γ-glutamyl)]-Glu-Phe-Ile-Ala-Trp-Leu-Val-Arg-Gly-Arg-Gly-OH (HXEGTFTSDVSCYLEGQAAXEFIAWLVRGRG; Aib; oleoyl-gamma-Glu on Lys; C-terminal acid; Sequence is synthesized; (2)..(2) Xaa is aAib; (20)..(20) Xaa is LyO; (31)..(31) C-terminal) [G6 series 46]” was 5 days. As for “His-βAib-Glu-Gly-Thr-Phe-Thr-Cys-Asp-Val-Ser-Ser-Tyr-Leu-Glu-Gly-Gln-Ala-Ala-Lys-Glu-Phe-Ile-Ala-Trp-Leu-Val-Arg-βAib-Arg-NH2 (H[βAib]EGTFTCDVSSYLEGQAAKEFIAWLVR[βAib]R-NH2; also: disulfide-linked homodimer via Cys) [G8 series 67]”, the “Hypoglycemic” value turned out to be 2 days. Under “His-βAib-Glu-Gly-Thr-Phe-Thr-Cys-Asp-Val-Ser-Ser-Tyr-Leu-Glu-Gly-Gln-Ala-Ala-Lys[N-ϵ-(N-α-oleoyl-L-γ-glutamyl)]-Glu-Phe-Ile-Ala-Trp-Leu-Val-Arg-Gly-Arg-Gly-NH2 (HXEGTFTCDVSSYLEGQAAXEFIAWLVRGRG; beta-Aib; oleoyl-gamma-Glu on Lys; C-terminal amide; Sequence is synthesized; (2)..(2) Xaa is bAib; (20)..(20) Xaa is 26Lys[N-e-(N-a-oleoyl-L-g-glutamyl)]; (31)..(31) N-terminal) [G8 series 66]” stands 3 days. Under “His-βAib-Glu-Gly-Thr-Phe-Thr-Ser-Asp-Val-Cys-Ser-Tyr-Leu-Glu-Gly-Gln-Ala-Ala-Lys-Glu-Phe-Ile-Ala-Trp-Leu-Val-Arg-βAib-Arg-NH2 (H[βAib]EGTFTSDVCSYLEGQAAKEFIAWLVR[βAib]R-NH2; also: disulfide-linked homodimer via Cys) [G2 series 16]” stands 3 days; under “His-βAib-Glu-Gly-Thr-Phe-Thr-Ser-Asp-Val-Cys-Ser-Tyr-Leu-Glu-Gly-Gln-Ala-Ala-Lys-Glu-Phe-Ile-Ala-Trp-Leu-Val-Lys-βAib-Arg-NH2 (H[βAib]EGTFTSDVCSYLEGQAAKEFIAWLVK[βAib]R-NH2; also: disulfide-linked homodimer via Cys) [G2 series 17]”, 3 days; under “His-βAib-Glu-Gly-Thr-Phe-Thr-Ser-Asp-Val-Cys-Ser-Tyr-Leu-Glu-Gly-Gln-Ala-Ala-Lys[N-ϵ-(N-α-oleoyl)]-Glu-Phe-Ile-Ala-Trp-Leu-Val-Arg-Gly-Arg-Gly-NH2 (HXEGTFTSDVCSYLEGQAAXEFIAWLVRGRG; βAib; oleoyl on Lys; C-terminal amide; Sequence is synthesized; (2)..(2) Xaa is bAib; (20)..(20) Xaa is 26Lys[N-e-(N-a-oleoyl-L-g-glutamyl)]; (31)..(31) N-terminal) [G4 series 30]”, 6 days.

Regarding “His-βAib-Glu-Gly-Thr-Phe-Thr-Ser-Asp-Val-Cys-Ser-Tyr-Leu-Glu-Gly-Gln-Ala-Ala-Lys[N-ϵ-(N-α-oleoyl-L-γ-glutamyl)]-Glu-Phe-Ile-Ala-Trp-Leu-Val-Arg-Gly-Arg-Gly-NH2 (HXEGTFTSDVCSYLEGQAAXEFIAWLVRGRG; βAib; oleoyl-γ-glutamyl on Lys; C-terminal amide; Sequence is synthesized; (2)..(2) Xaa is bAib; (20)..(20) Xaa is 26Lys[N-e-(N-a-oleoyl-L-g-glutamyl)]; (31)..(31) N-terminal) [G2 series 15]”, the “Hypoglycemic” value came out at 5 days. Under “His-βAib-Glu-Gly-Thr-Phe-Thr-Ser-Asp-Val-Ser-Cys-Tyr-Leu-Glu-Gly-Gln-Ala-Ala-Lys-Glu-Phe-Ile-Ala-Trp-Leu-Val-Arg-βAib-Arg-NH2 (H[βAib]EGTFTSDVSCYLEGQAAKEFIAWLVR[βAib]R-NH2; also: disulfide-linked homodimer via Cys12) [G7 series 54]” stands 2 days.
